Several values for one entry are separate records, joined by “and”; a condition that tells them apart may be missing. Equal entries are not always repeated.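 Where inhibition never reached the appropriate level, the endpoint shown equals the highest concentration tested. Otherwise, values were interpolated linearly from a five-concentration, 48-hour dose response in 96-well plates. At the GI50, growth is halved. At the TGI there is no net growth.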 *1 amine or outer side, *2 acyl side, *3 side chain or, on linkers, in order; H or OH if unused. Where a SMILES comes first, the peptide text is derived from it. [ ]: non-standard residue; d: D form. The star is where a group is joined. X31 = CC(=O)N(C)SCC(N[*:1])C(=O)[*:2]; Cbz = O=C(OCc1ccccc1)*; Bn = c1ccc(C*)cc1; For = O=C*
Key:
Assay in all cases: NCI-60 cell line screen, 48 h
NCI/ADR-RES ovarian = tested on: NCI/ADR-RES ovarian
NCI-H522 lung = tested on: NCI-H522 lung
SN12C renal = tested on: SN12C renal
MCF7 breast = tested on: MCF7 breast
HL-60(TB) leukemia = tested on: HL-60(TB) leukemia
OVCAR-4 ovarian = tested on: OVCAR-4 ovarian
HOP-92 NSCLC = tested on: HOP-92 NSCLC
OVCAR-8 ovarian = tested on: OVCAR-8 ovarian
MDA-MB-231 breast = tested on: MDA-MB-231 breast
HCT-15 colon = tested on: HCT-15 colon
SK-OV-3 ovarian = tested on: SK-OV-3 ovarian
UACC-62 melanoma = tested on: UACC-62 melanoma

Row | Compound | TGI (NCI/ADR-RES ovarian) | GI50 (NCI-H522 lung) | TGI (NCI-H522 lung) | GI50 (SN12C renal) | TGI (SN12C renal) | TGI (MCF7 breast) | TGI (HL-60(TB) leukemia) | GI50 (OVCAR-4 ovarian) | TGI (OVCAR-4 ovarian) | GI50 (HOP-92 NSCLC) | TGI (HOP-92 NSCLC) | TGI (OVCAR-8 ovarian) | GI50 (MDA-MB-231 breast) | TGI (MDA-MB-231 breast) | GI50 (HCT-15 colon) | TGI (HCT-15 colon) | GI50 (SK-OV-3 ovarian) | TGI (SK-OV-3 ovarian) | GI50 (UACC-62 melanoma) | TGI (UACC-62 melanoma)
1 | N#Cc1c(-c2ccccc2)cc(-c2ccccc2)n(C2OC(CO)C(O)C(O)C2O)c1=S (centres undefined) | > 100 µM | 17.1 µM and 38.9 µM | 35.6 µM and > 100 µM | 36.8 µM and 84.1 µM | > 100 µM | 78 µM and > 100 µM | > 100 µM | 37.1 µM and > 100 µM | > 100 µM | 46.6 µM and > 100 µM | > 100 µM | > 100 µM | 7.15 µM and 23.9 µM | 31.1 µM and 83 µM | 31 µM and 80.8 µM | > 100 µM | 40.3 µM and 85 µM | > 100 µM | 15.9 µM and 35.5 µM | 33.9 µM and > 100 µM
2 | COC(=O)C1(C(=O)OC)Cc2ccc(OC)cc2C2=C1C(=O)c1ccccc1C2=O | > 28.4 µM |  | 8.89 µM |  | 14.4 µM | 7.3 µM | > 21.1 µM |  | 3.43 µM |  | 15.9 µM | 9.27 µM |  | 4.34 µM |  | 25.2 µM |  |  |  | 4.37 µM
3 | CCc1c2c([nH]c(=S)c1C#N)CCC2 | > 100 µM |  | > 100 µM |  |  | > 100 µM | > 100 µM |  | > 100 µM |  | > 100 µM | > 100 µM |  | > 100 µM |  | > 100 µM |  | > 100 µM |  | > 100 µM
4 | O=C(ON=C1c2ccccc2C(Br)C(Br)c2ccccc21)c1cc([N+](=O)[O-])cc([N+](=O)[O-])c1 (centres undefined) | 40.5 µM |  | 14.3 µM |  | 35.8 µM | 48 µM | 0.422 µM |  | 48.2 µM |  | 39.8 µM | 36.5 µM |  | 35.6 µM |  | 42.7 µM |  | 66.8 µM |  | 38.5 µM
5 | CC(=O)N(C)SCC(NC(=O)C(Cc1ccccc1)NC(=O)OCc1ccccc1)C(=O)NC(Cc1ccccc1)C(=O)NC(Cc1cn(C=O)c2ccccc12)C(=O)NC(CCCCNC(=O)OCc1ccccc1)C(=O)NC(C(=O)NC(CSN(C)C(C)=O)C(=O)NC(C(N)=O)C(C)OCc1ccccc1)C(C)OCc1ccccc1 (centres undefined) (Cbz-F[X31]FW(For)K(Cbz)T(Bn)[X31]T(Bn)-NH2; configuration not given here) | > 100 µM |  | > 100 µM |  | > 100 µM | > 100 µM | > 100 µM |  | > 100 µM |  | 56.6 µM | > 100 µM |  | 30.5 µM |  | > 100 µM |  | 96.1 µM |  | > 100 µM
6 | CCOc1cc(NC(C)=O)ccc1C(=O)NN1C(=O)C(Cl)C1c1ccccc1 (centres undefined) | 88.5 µM |  | 5.82 µM |  | 36.5 µM | 22.9 µM | 36.1 µM |  | 32.7 µM |  | 31.7 µM | > 100 µM |  | 26.7 µM |  | 45.4 µM |  | 31.7 µM |  | 23.3 µM
7 | O=S1(=O)N=C(SCc2ccccc2)N(c2ccccc2)c2ccncc21 | 91.1 µM |  | 56.3 µM |  | > 100 µM | > 100 µM | > 100 µM |  | > 100 µM |  | 82.7 µM | > 100 µM |  | > 100 µM |  | > 100 µM |  | > 100 µM |  | > 100 µM
8 | CC(C)Cn1cnc2c(NCC(C)O)nc3ccccc3c21 (centres undefined) | > 100 µM |  | > 100 µM |  | > 100 µM | > 100 µM | > 100 µM |  | > 100 µM |  | > 100 µM | > 100 µM |  | > 100 µM |  | > 100 µM |  | > 100 µM |  | > 100 µM
9 | CNC1=C(C)C(=O)C(=O)C([C@H](C)CCC=C(C)C)=C1O | > 38.4 µM |  | 20.4 µM |  | > 100 µM | > 100 µM | 6.88 µM |  | > 77 µM |  | > 100 µM | > 60.9 µM |  | > 100 µM |  | > 100 µM |  | 83.3 µM |  | > 72.3 µM
10 | CCCCCCCCCCCCCCCCCCNc1ccn(C2OC(COP(=O)(O)OCC3OC(n4cc(F)c(=O)[nH]c4=O)CC3O)C(O)C2O)c(=O)n1 (centres undefined) | > 54.8 µM |  | > 100 µM |  | > 100 µM | > 48.6 µM | 22.1 µM |  | > 100 µM |  | > 100 µM | > 100 µM |  | > 100 µM |  | > 100 µM |  | > 100 µM |  | > 74.4 µM
11 | C=CCN1C(=O)/C(=C/c2ccc(OC)cc2)N=C1SC/C=C/C | > 100 µM |  | > 100 µM |  | 80.6 µM | > 100 µM | 54.4 µM |  | > 100 µM |  | 93.8 µM | 80.1 µM |  | > 100 µM |  | > 100 µM |  | > 100 µM |  | > 100 µM
12 | CCOC(=O)/C(C#N)=C\c1ccc(N(CCC(=O)O)CCC(=O)O)c(I)c1 | > 10 µM |  | > 10 µM |  | > 10 µM | > 10 µM | > 10 µM |  | > 10 µM |  | > 10 µM | > 10 µM |  | > 10 µM |  | > 10 µM |  | > 10 µM |  | > 10 µM
13 | OC1(c2cccs2)c2cccc(Cl)c2C(O)(c2cccs2)c2c(Cl)cccc21 (centres undefined) | > 100 µM |  | > 100 µM |  | > 100 µM | > 100 µM | > 100 µM |  | > 100 µM |  | > 100 µM | > 100 µM |  | > 100 µM |  | > 100 µM |  | > 100 µM |  | > 100 µM
14 | CC1=NN(C(=O)c2ccccc2O)C(=O)/C1=C/c1ccco1 | 85.3 µM |  | 37.7 µM |  | > 39.3 µM | 37.9 µM | > 26.8 µM |  | > 84.8 µM |  | > 71.4 µM | 97.9 µM |  | > 100 µM |  | > 100 µM |  | > 82 µM |  | 6.27 µM
15 | O=C1CCC2C(O)c3cc4c(cc3C(c3ccc5c(c3)OCO5)N12)OCO4 (centres undefined) | > 100 µM |  | > 100 µM |  | > 100 µM | > 100 µM | > 100 µM |  | > 100 µM |  | 66.8 µM | > 100 µM |  | > 100 µM |  | > 100 µM |  | > 100 µM |  | > 100 µM
16 | COc1cc(O)c2c(=O)cc(-c3ccc(O)cc3O)oc2c1CC=C(C)C | > 100 µM |  | 33.6 µM |  | 31.5 µM | 75.7 µM | 34.4 µM |  | 28.5 µM |  | 35.7 µM | 35.3 µM |  | 54.1 µM |  | 25.5 µM |  |  |  | 39.3 µM
17 | CCOC(=O)P(=O)(O)c1ccc(N(C)Cc2ccccc2)cc1 | > 100 µM |  | > 100 µM |  | > 100 µM | > 100 µM | > 100 µM |  | > 100 µM |  | > 100 µM | > 100 µM |  | > 100 µM |  | > 100 µM |  | > 100 µM |  | > 100 µM

Reference: PubChem BioAssay (NCI)
